Patent US8802720B2, “Acylamino-substituted fused cyclopentanecarboxylic acid derivatives and their use as pharmaceuticals” (SANOFI, priority 2008, dated 2014)
pIC50: −log10 of the molar value.

These compounds were tested against human Edg-2 receptor (LPA1 receptor) (Homo sapiens, UniProt Q92633) (assay: Edg-2 receptor inhibition by FLIPR calcium fluorescence measurement (LPA-mediated calcium liberation)). Details: CHO cells stably overexpressing human Edg-2 receptor; LPA 18:1 100 nM; fluo-4 fluorescence; triplicate; read-out: Inhibitory concentrations IC50 for inhibition of the Edg-2 receptor.
Sequence of human Edg-2 receptor (LPA1 receptor) (Q92633 whole entry): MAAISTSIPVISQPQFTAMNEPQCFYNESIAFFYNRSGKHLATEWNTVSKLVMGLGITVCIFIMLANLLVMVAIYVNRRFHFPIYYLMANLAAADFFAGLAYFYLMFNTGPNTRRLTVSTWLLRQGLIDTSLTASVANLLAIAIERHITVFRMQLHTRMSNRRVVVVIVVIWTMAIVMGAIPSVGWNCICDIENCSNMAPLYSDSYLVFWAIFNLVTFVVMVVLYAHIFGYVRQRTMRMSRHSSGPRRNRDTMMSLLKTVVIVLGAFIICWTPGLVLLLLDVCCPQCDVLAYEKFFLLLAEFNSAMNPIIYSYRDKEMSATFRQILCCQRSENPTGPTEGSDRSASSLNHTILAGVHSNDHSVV
Assay type: cell-based
Method in brief: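 CHO cells stably overexpressing human Edg-2 were fluo-4 loaded and pre-incubated ~5 min with compound (≤0.3% DMSO) in HBSS/HEPES/probenecid, pH 7.5. Then LPA 18:1 at 100 nM final was added. Peak calcium fluorescence over ~3 min, baseline-corrected versus DMSO, gave % inhibition in triplicate and IC50.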

Row | SMILES | pIC50
1 | COc1ccc(C(=O)NC2(C(=O)O)Cc3ccccc3C2)cc1OCC1(c2ccccc2)COC1 [Example 250, 2-[4-Methoxy-3-(3-phenyl-oxetan-3-ylmethoxy)-benzoylamino]-indane-2-carboxylic acid] | > 7.00
2 | COc1ccc(C(=O)NC2(C(=O)O)Cc3ccccc3C2)cc1OCCc1cccc(O)c1 [Example 251, 2-{3-[2-(3-Hydroxy-phenyl)-ethoxy]-4-methoxy-benzoylamino}-indane-2-carboxylic acid] | 4.52 to 6.00
3 | COc1cc(C(=O)NC2(C(=O)O)Cc3ccccc3C2)ccc1OCCc1cccc(C)c1 [Example 252, 2-[3-Methoxy-4-(2-m-tolyl-ethoxy)-benzoylamino]-indane-2-carboxylic acid] | 6.00 to 7.00
4 | Cc1cccc(CCOc2cc(C(=O)NC3(C(=O)O)Cc4ccccc4C3)ccc2OCc2ccccc2)c1 [Example 253, 2-[4-Benzyloxy-3-(2-m-tolyl-ethoxy)-benzoylamino]-indane-2-carboxylic acid] | > 7.00
5 | Cc1cccc(CCOc2cc(C(=O)NC3(C(=O)O)Cc4ccccc4C3)ccc2O)c1 [Example 254, 2-[4-Hydroxy-3-(2-m-tolyl-ethoxy)-benzoylamino]-indane-2-carboxylic acid] | 4.52 to 6.00
6 | Cc1cccc(CCOc2cc(C(=O)NC3(C(=O)O)Cc4ccccc4C3)ccc2OC(C)C)c1 [Example 255, 2-[4-Isopropoxy-3-(2-m-tolyl-ethoxy)-benzoylamino]-indane-2-carboxylic acid] | > 7.00
7 | COCCOc1ccc(C(=O)NC2(C(=O)O)Cc3ccccc3C2)cc1OCCc1cccc(C)c1 [Example 256] | > 7.00
8 | Cc1cccc(CCOc2cc(C(=O)NC3(C(=O)O)Cc4ccccc4C3)ccc2OCC2CCCCC2)c1 [Example 257] | > 7.00
9 | Cc1cccc(CCOc2cc(C(=O)NC3(C(=O)O)Cc4ccccc4C3)ccc2OCC2CCOC2)c1 (stereo not shown) [Example 258] | > 7.00
10 | Cc1cccc(CCOc2cc(C(=O)NC3(C(=O)O)Cc4ccccc4C3)ccc2OCCOC(C)(C)C)c1 [Example 259] | > 7.00
11 | Cc1cccc(CCOc2cc(C(=O)NC3(C(=O)O)Cc4ccccc4C3)ccc2OCCC(F)(F)F)c1 [Example 260] | 6.00 to 7.00
12 | Cc1cccc(CCOc2cc(C(=O)NC3(C(=O)O)Cc4ccccc4C3)ccc2OCCC(C)(C)C)c1 [Example 261] | 6.00 to 7.00
13 | Cc1cccc(CCOc2cc(C(=O)NC3(C(=O)O)Cc4ccccc4C3)ccc2OCC2CCC2)c1 [Example 262] | > 7.00
14 | CCCCCOc1ccc(C(=O)NC2(C(=O)O)Cc3ccccc3C2)cc1OCCc1cccc(C)c1 [Example 263] | > 7.00
15 | Cc1cccc(CCOc2cc(C(=O)NC3(C(=O)O)Cc4ccccc4C3)ccc2OCC2CCCCO2)c1 (stereo not shown) [Example 264] | > 7.00
16 | Cc1cccc(CCOc2cc(C(=O)NC3(C(=O)O)Cc4ccccc4C3)ccc2OCCN(C)C)c1 [Example 265] | 6.00 to 7.00
17 | Cc1cccc(CCOc2cc(C(=O)NC3(C(=O)O)Cc4ccccc4C3)ccc2OCC2CC2)c1 [Example 266, 2-[4-cyclopropylmethoxy-3-(2-m-tolyl-ethoxy)-benzoylamino]-indane-2-carboxylic acid] | > 7.00
18 | CSCCOc1ccc(C(=O)NC2(C(=O)O)Cc3ccccc3C2)cc1OCCc1cccc(C)c1 [Example 267] | > 7.00
19 | Cc1cccc(CCOc2cc(C(=O)NC3(C(=O)O)Cc4ccccc4C3)ccc2OCCF)c1 [Example 268] | > 7.00
20 | C=CCOc1ccc(C(=O)NC2(C(=O)O)Cc3ccccc3C2)cc1OCCc1cccc(C)c1 [Example 269] | > 7.00

Row | SMILES | pIC50
21 | Cc1cccc(CCOc2cc(C(=O)NC3(C(=O)O)Cc4ccccc4C3)ccc2OCCO)c1 [Example 270, 2-[4-(2-Hydroxy-ethoxy)-3-(2-m-tolyl-ethoxy)-benzoylamino]-indane-2-carboxylic acid] | > 7.00
22 | Cc1cccc(CCOc2cc(C(=O)NC3(C(=O)O)Cc4ccccc4C3)ccc2OCC(=O)O)c1 [Example 271, 2-[4-Carboxymethoxy-3-(2-m-tolyl-ethoxy)-benzoylamino]-indane-2-carboxylic acid] | 6.00 to 7.00
23 | Cc1cccc(CCOc2cc(C(=O)NC3(C(=O)O)Cc4ccccc4C3)ccc2OC2CC2)c1 [Example 272, 2-[4-Cyclopropoxy-3-(2-m-tolyl-ethoxy)-benzoylamino]-indane-2-carboxylic acid] | 6.00 to 7.00
24 | CCc1sc(C(=O)NC2(C(=O)O)Cc3ccccc3C2)nc1OCCc1cccc(C)c1 [Example 273, 2-{[5-Ethyl-4-(2-m-tolyl-ethoxy)-thiazole-2-carbonyl]-amino}-indane-2-carboxylic acid] | 6.00 to 7.00
25 | COc1ncc(C(=O)NC2(C(=O)O)Cc3ccccc3C2)cc1OCCc1cc(C)ccc1F [Example 274, 2-({5-[2-(2-Fluoro-5-methyl-phenyl)-ethoxy]-6-methoxy-pyridine-3-carbonyl}-amino)-indane-2-carboxylic acid] | > 7.00
26 | COc1ncc(C(=O)NC2(C(=O)O)Cc3ccccc3C2)cc1OCCc1cccc(CCO)c1 [Example 275, 2-[(5-{2-[3-(2-Hydroxy-ethyl)-phenyl]-ethoxy}-6-methoxy-pyridine-3-carbonyl)-amino]-indane-2-carboxylic acid] | > 7.00
27 | COc1c(F)cc(C(=O)NC2(C(=O)O)Cc3ccccc3C2)cc1OCCc1cccc(CCO)c1 [Example 276, 2-(3-Fluoro-5-{2-[3-(2-hydroxy-ethyl)-phenyl]-ethoxy}-4-methoxy-benzoylamino)-indane-2-carboxylic acid] | > 7.00
28 | COc1ccc(C(=O)NC2(C(=O)O)Cc3ccccc3C2)c(F)c1OCCc1cccc(C)c1 [Example 277, 2-[2-Fluoro-4-methoxy-3-(2-m-tolyl-ethoxy)-benzoylamino]-indane-2-carboxylic acid] | 4.52 to 6.00
29 | COc1ccc(C(=O)NC2(C(=O)O)Cc3ccccc3C2)cc1OCCC1CCCC(C)C1 (stereo not shown) [Example 278, 2-{4-Methoxy-3-[2-(3-methyl-cyclohexyl)-ethoxy]-benzoylamino}-indane-2-carboxylic acid] | 4.52 to 6.00
30 | COc1ccc(C(=O)NC2(C(=O)O)Cc3ccccc3C2)cc1COCc1cccc(C)c1 [Example 279, 2-[4-Methoxy-3-(3-methyl-benzyloxymethyl)-benzoylamino]-indane-2-carboxylic acid] | 6.00 to 7.00
31 | COc1ccc(C(=O)NC2(C(=O)O)Cc3ccccc3C2)cc1-c1ccc(Cl)cc1 [Example 280] | 6.00 to 7.00
32 | COc1ccc(C(=O)NC2(C(=O)O)Cc3ccccc3C2)cc1-c1ccccc1Cl [Example 281] | 4.52 to 6.00
33 | COc1ccc(C(=O)NC2(C(=O)O)Cc3ccccc3C2)cc1-c1cncc(Cl)c1 [Example 282, 2-[3-(5-chloro-pyridin-3-yl)-4-methoxy-benzoylamino]-indane-2-carboxylic acid] | 6.00 to 7.00
34 | COc1ccc(C(=O)NC2(C(=O)O)Cc3ccccc3C2)cc1-c1cccc(C#N)n1 [Example 283] | 4.52 to 6.00
35 | COc1ccc(C(=O)NC2(C(=O)O)Cc3ccccc3C2)cc1-c1cncc(C#N)c1 [Example 284] | > 7.00
36 | COc1ccc(C(=O)NC2(C(=O)O)Cc3ccccc3C2)cc1-c1cccc(C)c1 [Example 286] | > 7.00
37 | COc1ccc(C(=O)NC2(C(=O)O)Cc3ccccc3C2)cc1-c1cccc(NC(C)=O)c1 [Example 287] | 6.00 to 7.00
38 | CCOc1cccc(-c2cc(C(=O)NC3(C(=O)O)Cc4ccccc4C3)ccc2OC)c1 [Example 288] | 6.00 to 7.00
39 | COc1ccc(C(=O)NC2(C(=O)O)Cc3ccccc3C2)cc1-c1cc(C(F)(F)F)ccc1Cl [Example 289] | 6.00 to 7.00
40 | CCCc1ccc(-c2cc(C(=O)NC3(C(=O)O)Cc4ccccc4C3)ccc2OC)cc1 [Example 290] | 4.52 to 6.00

Row | SMILES | pIC50
41 | COc1ccc(C(=O)NC2(C(=O)O)Cc3ccccc3C2)cc1-c1ccc(C)c(C)c1 [Example 291] | 6.00 to 7.00
42 | COc1ccc(C(=O)NC2(C(=O)O)Cc3ccccc3C2)cc1-c1ccc(Cl)c(Cl)c1 [Example 292] | > 7.00
43 | COc1ccc(C(=O)NC2(C(=O)O)Cc3ccccc3C2)cc1-c1cccc(Cl)c1Cl [Example 293] | > 7.00
44 | COc1ccc(C(=O)NC2(C(=O)O)Cc3ccccc3C2)cc1-c1cc(C)c(OC)c(C)c1 [Example 294] | > 7.00
45 | COc1ccc(C(=O)NC2(C(=O)O)Cc3ccccc3C2)cc1-c1csc2ccccc12 [Example 295] | > 7.00
46 | COc1ccc(Cl)cc1-c1cc(C(=O)NC2(C(=O)O)Cc3ccccc3C2)ccc1OC [Example 296] | > 7.00
47 | COc1ccc(C(=O)NC2(C(=O)O)Cc3ccccc3C2)cc1-c1cccc(C#N)c1 [Example 297] | > 7.00
48 | COc1ccc(C(=O)NC2(C(=O)O)Cc3ccccc3C2)cc1-c1ccccc1CN(C)C [Example 299] | 4.52 to 6.00
49 | COc1ccc(C(=O)NC2(C(=O)O)Cc3ccccc3C2)cc1-c1cc(C)cs1 [Example 300] | 6.00 to 7.00
50 | COc1ccc(C(=O)NC2(C(=O)O)Cc3ccccc3C2)cc1-c1cccc(SC)c1 [Example 301] | > 7.00
51 | COc1ccc(C(=O)NC2(C(=O)O)Cc3ccccc3C2)cc1-c1cccc(OC(F)(F)F)c1 [Example 302] | > 7.00
52 | COc1ccc(C(=O)NC2(C(=O)O)Cc3ccccc3C2)cc1-c1cc(Cl)ccc1Cl [Example 303] | > 7.00
53 | COc1ccc(F)cc1-c1cc(C(=O)NC2(C(=O)O)Cc3ccccc3C2)ccc1OC [Example 304] | > 7.00
54 | COc1ccc(C(=O)NC2(C(=O)O)Cc3ccccc3C2)cc1-c1cccc(OCc2ccccc2)c1 [Example 305] | 6.00 to 7.00
55 | COc1ccc(C(=O)NC2(C(=O)O)Cc3ccccc3C2)cc1-c1cc(F)c(F)c(F)c1 [Example 306] | > 7.00
56 | COc1ccc(C(=O)NC2(C(=O)O)Cc3ccccc3C2)cc1-c1cccc(NS(C)(=O)=O)c1 [Example 307] | > 7.00
57 | CCSc1cccc(-c2cc(C(=O)NC3(C(=O)O)Cc4ccccc4C3)ccc2OC)c1 [Example 308] | > 7.00
58 | COc1ccc(C(=O)NC2(C(=O)O)Cc3ccccc3C2)cc1-c1cccc(S(C)(=O)=O)c1 [Example 309] | 6.00 to 7.00
